We go through nine molecules from patent publication EP0408108A2, “Pharmaceutical compositions containing acrylic acid derivatives and their use in the medicine” (RICHTER GEDEON VEGYESZETI GYAR R.T., priority 1989, dated 1991).

Usually % Inhibition stands for the percentage by which the read-out fell short of the control.

Converted amounts (≈) assume the structure as drawn.

The test system of experiment [1] is gastric injuries induced by acidic alcohol. In words: Assay of gastric injuries induced by acidic alcohol (Robert). The experiment is classed as in vivo, rats. Particulars: for ED50 / inhibition at 10 mg/kg: Rattus norvegicus, po, pretreatment 30 min; for ED50 / ED₅₀ p.o. (pretreatment: 30 min): haemorrhagic lesions after acidic alcohol, female rats; for ED50: read-out: ED₅₀ p.o. (pretreatment: 30 min); for inhibition at 10 mg/kg: read-out: % Inhibition at a dose of 10 mg/kg p.o. (pretreatment: 30 min). The method, then: 1) Assay of gastric injuries induced by acidic alcohol [A. Robert, Gastroenterology, 77, 761-767 (1979)] Female rats weighing about 120 to 150 g fasted for 24 hours were used in this test. Test compounds suspended with Tween 80 were given orally to the animals through an intragastric tube. After a certain period (pretreatment time) acidic alcohol was given through the intragastric tube at a dose or 0.5 ml per 100 g of body weight. The animals were sacrificed after 1 hour, their stomach was removed and incised along the great curve. The length of the reddish-brown strips (haemorrhagic lesions) was measured and the mean total length per stomach was calculated. The biological activity of the test compounds was given compared to the control group.

A further experiment has as its system gastric acid secretion. In words: Assay of the inhibition of gastric acid secretion by using pylorus ligature (Shay et al.). Particulars: for inhibition at 10 mg/kg: read-out: % Inhibition in the amount of the acid at a dose of 10 mg/kg p.o. (pretreatment: 30 min). The experiment is classed as in vivo, Wistar rats. How it is done:
3) Assay of the inhibition of gastric acid secretion -by using pylorus ligature
[Shay et al., Gastroenterology, 5, 43-61 (1945)]
Before ligating the pylorus the test compounds suspended with Tween were given orally at a volume of 0.5 ml per […] of body weight to female Wistar rats fasted previously for 20 hours. The animals were sacrificed 4 hours after the operation, and the amount of the acid in the stomach was measured by titration with 0.01N sodium hydroxide solution in the presence of phenolphtalein indicator. The pH value of the content of stomach was measured by using a pH-meter (Radelkis, Type OP-211/1).

For experiment [2], the system named is chronic ulcer model induced by acetic acid. Kind of experiment: Assay of a chronic ulcer model induced by acetic acid (Tagaki et al). Conditions: from day 5 to day 10 after operation, sacrificed day 15. The experiment is classed as in vivo, rats. The method, then: 2)Assay of a chronic ulcer model induced by acetic acid
The assay was carried out in the following manner. Abdominal wall of femal rats previously fasted for 24 hours was incised under ether anaesthesia. A 20% solution of acetic acid (25 µl) was injected to the subserosus layer of the glandular part of the stomach near the pylorus. Thereafter the abdominal wall was closed and the animal was kept on normal diet, by providing feed and water ad libitum. The treatment was started 5 days after the operation and continued until the 10th day by administering the test compound once a day The animals were sacrificed 15 days after the operation and their stomach was removed. The extent of the ulcer was determined by measuring the diameter of the necrotic regions and calculating their total area. The curative effect of the tested compounds was calculated by the following formula in %: [formula]

A further experiment has as its system Campylobacter pylori. Kind of experiment: Activity against Campylobacter pylori by agar diffusion and agar dilution methods. The format is cell-based. Conditions: Helicobacter pylori; Campylobacter pylori cultures isolated from 5 different ulcerous patients; read-out: MIC (minimal inhibitory concentration). How it is done: The activity of the compounds of formula (I) against Campylobacter pylori was investigated by agar diffusion and agar dilution methods. The experiments were carried out with Campylobacter pylori cultures isolated from 5 different ulcerous patients.
For orientation: A growth-free zone around the sample is the usual read-out of agar diffusion tests.

[3] abbreviates: 10 mg/kg p.o., compared to the control group.
Setting [4] is: Rattus norvegicus, po, 10 mg/kg p.o., pretreatment 30 min, acid titrated 4 hours after pylorus ligature.

Take `O=C(O)/C=C/Sc1ccccc1` [B, 3-phenylthio-2(E)-propenoic acid]: the ED50 in experiment [1] was 31 mg/kg.

On to `O=C(O)/C=C\[S+]([O-])c1ccccc1` (stereo not drawn) [C, 3-phenylsulfinyl-2(Z)-propenoic acid], for which the inhibition at 10 mg/kg in experiment [1] (setting [3]) is 56%; with gastric acid secretion (setting [4]) it was 15%.

Turning to `O=C(O)/C=C/[S+]([O-])c1ccccc1` (stereo not drawn) [Compound D, 3-phenylsulfinyl-2(E)-propenoic acid], the ED50 in experiment [1] turned out to be 4.2 mg/kg. Besides, the inhibition at 10 mg/kg in experiment [1] (setting [3]) was determined as 64%; in the experiment on gastric acid secretion (setting [4]) it was 22%.

With `O=C(O)/C=C\S(=O)(=O)c1ccccc1` [Compound E, 3-phenylsulfonyl-2(Z)-propenoic acid], the inhibition at 10 mg/kg in experiment [1] (setting [3]) amounted to 13%.

Consider `O=C(O)/C=C/S(=O)(=O)c1ccccc1` [F, 3-phenylsulfonyl-2(E)-propenoic acid], for which, in experiment [1] (setting [3]), the “% Inhibition at a dose of 10 mg/kg p.o. (pretreatment: 30 min)” value is listed as 86%. Further, the “ED₅₀ p.o. (pretreatment: 30 min)” value in experiment [1] stood at 3.4 mg/kg; in the experiment on gastric acid secretion (p.o., gastric acid secretion, pylorus ligature, 4 hours after operation), 12.0 mg/kg. In experiment [2] (50 mg/kg p.o. once a day), the “% Curative effect” value is 37%. Besides, the “% Inhibition in the amount of the acid at a dose of 10 mg/kg p.o. (pretreatment: 30 min)” value in the experiment on gastric acid secretion (10 mg/kg p.o., acid titrated 4 hours after pylorus ligature) was found to be 48%.

For the molecule `O=C(O)/C=C/Sc1ccccc1` [G, magnesium bis[3-phenylthio-2(E)-propenoate]], the inhibition at 10 mg/kg with gastric acid secretion (setting [4]) came out at 16%.

Regarding `O=C(O)/C=C/S(=O)(=O)c1ccccc1` [H, magnesium bis[3-phenylsulfonyl-2(E)-propenoate]hydrate], the ED50 in experiment [1] worked out at 3.2 mg/kg; with gastric acid secretion (Rattus norvegicus, po, pretreatment 30 min, gastric acid secretion, pylorus ligature, 4 hours after operation, read-out: ED₅₀ p.o. (pretreatment: 30 min)), 10 mg/kg. Besides, the figures for the inhibition at 10 mg/kg (in experiment [1] (setting [3]); in the experiment with gastric acid secretion (setting [4])) were 96% and 63%, respectively. Also, the “% Curative effect” value in experiment [2] (30 mg/kg p.o. once a day) stood at 27%.

In the case of `COC(=O)/C=C/S(=O)(=O)c1ccccc1` [I, methyl 3-phenylsulfonyl-2(E)-propenoate], the inhibition at 10 mg/kg in experiment [1] (setting [3]) was found to be 98%; with gastric acid secretion (setting [4]), 21%. The “% Curative effect” value in experiment [2] (30 mg/kg p.o. once a day) is on record as 73%. Further, the MIC with Campylobacter pylori fell in the range of 250 to 270 µg/mL (≈ 1100 to 1190 µM).

For the molecule Sucralfat [reference compound], in experiment [1], the “ED₅₀ p.o. (pretreatment: 30 min)” value stood at 150 mg/kg. The “% Curative effect” value in experiment [2] (500 mg/kg p.o. once a day) came out at 55%.
